Experimental data as given in patent US7566720B2, “2-pyridinyl-6,7,8,9-tetrahydropyrimido[1,2-a] pyrimidin-4-one and 7-pyridinyl-2,3-dihydroimidazo[1,2-a] pyrimidin-5(1H)one derivatives” (Sanofi-Aventis, priority 2000, dated 2009).
Where a name gives a salt, the structure may show the parent alone.

melting point [°C]	SMILES
232 to 234	CC(C(O)c1ccccc1)N1CCCn2c1nc(-c1ccncc1)cc2=O (racemic) [Compound No 74 of Table 1, 9-[1-methyl-2-hydroxy-2-phenyl-ethyl]-2-pyridin-4-yl-6,7,8,9-tetrahydro-4H-pyrimido[1,2-a]pyrimidin-4-one]
194 to 196	CC(C(=O)c1ccccc1)N1CCCn2c1nc(-c1ccncc1)cc2=O (racemic) (as salt: hydrochloride) [Compound No 73 of Table 1, 9-[1-methyl-2-oxo-2-phenyl-ethyl]-2-pyridin-4-yl-6,7,8,9-tetrahydro-4H-pyrimido[1,2-a]pyrimidin-4-one]
158 to 160	O=C(CCc1ccccc1)N1CCCn2c1nc(-c1ccncc1)cc2=O (as salt: salt) [Compound No 25 of Table 1, 9-[3-phenylpropanoyl]-2-pyridin-4-yl-6,7,8,9-tetrahydro-4H-pyrimido[1,2-a]pyrimidin-4-one]
230 to 232	O=C(CCc1ccccc1)N1CCCn2c1nc(-c1ccncc1)cc2=O [Compound No 25 of Table 1, 9-[3-phenylpropanoyl]-2-pyridin-4-yl-6,7,8,9-tetrahydro-4H-pyrimido[1,2-a]pyrimidin-4-one]
